Measured values: US8802597B2, “Herbicidal pyrimidines” (E I du Pont de Nemours and Company, priority 2003, dated 2014)

What was measured:
Assay type in all cases: in vivo
[1] = tested on: redroot pigweed (Amaranthus retroflexus); experiment: Test A pre/postemergence
Procedure, shortened: (§1)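 Seeds sown in loam–sand blend received a preemergence directed soil spray of test chemical in non-phytotoxic solvent with surfactant; same-formulation postemergence spray given concurrently to plants 2–10 cm tall at 1- to 2-leaf stage. Greenhouse ~ten days, then visual injury rating versus untreated controls, 0 (no effect) to 100 (complete control).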

[2] = tested on: barnyardgrass (Echinochloa crus-galli); experiment: Test A pre/postemergence
Procedure, shortened: as §1

[3] = tested on: giant foxtail (Setaria faberi); experiment: Test A pre/postemergence
Procedure, shortened: as §1

[4] = tested on: velvetleaf (Abutilon theophrasti); experiment: Test A pre/postemergence
Procedure, shortened: as §1

[5] = tested on: crabgrass (Digitaria sanguinalis); experiment: Test A pre/postemergence
Procedure, shortened: as §1

[6] = tested on: morningglory (Ipomoea spp.); experiment: Test A pre/postemergence
Procedure, shortened: as §1

[7] = tested on: barnyardgrass (Echinochloa crus-galli); experiment: Test E flooded paddy water application; conditions: Flood, 21 days, scale 0 to 100 (0 no effect, 100 complete control)
Source text: (§2) Three plastic pots (ca. 16-cm diameter) per rate were partially filled with sterilized Tama silt loam soil comprising a 35:50:15 ratio of sand, silt and clay and 2.6% organic matter. Separate plantings for each of the three pots were as follows. Seeds from the U.S. of ducksalad (Heteranthera limosa), smallflower umbrella sedge (Cyperus difformis) and purple redstem (Ammannia coccinea), were planted into one 16-cm pot for each rate. Seeds from the U.S. of rice flatsedge (Cyperus iria), bearded (brdd.) sprangletop (Leptochloa fusca ssp. fascicularis), one stand of 9 or 10 water seeded rice seedlings (Oryza sativa cv. ‘Japonica-M202’), and one stand of 6 transplanted rice seedlings (Oryza sativa cv. ‘Japonica-M202’) were planted into one 16-cm pot for each rate. Seeds from the U.S. of barnyardgrass (Echinochloa crus-galli), late watergrass (Echinochloa oryzicola), early watergrass (Echinochloa oryzoides) and junglerice (Echinochloa colona) were planted into one 16-cm pot for each rate. Plantings were sequential so that crop and weed species were at the 2.0 to 2.5-leaf stage at time of treatment.
(§3) Potted plants were grown in a greenhouse with day/night temperature settings of 29.5/26.7° C., and supplemental balanced lighting was provided to maintain a 16-hour photoperiod. Test pots were maintained in the greenhouse until test completion.
(§4) At time of treatment, test pots were flooded to 3 cm above the soil surface, treated by application of test compounds directly to the paddy water, and then maintained at that water depth for the duration of the test. Effects of treatments on rice and weeds were visually evaluated by comparison to untreated controls after 21 days. Plant response ratings, summarized in Table E, are based on a scale of 0 to 100 where 0 is no effect and 100 is complete control. A dash (-) response means no test result.

[8] = tested on: purple redstem (Ammannia coccinea); experiment: Test E flooded paddy water application; conditions: Flood, 21 days, scale 0 to 100 (0 no effect, 100 complete control)
Source text: as §2, §3, §4

[9] = tested on: transplanted rice seedlings (Oryza sativa cv. ‘Japonica-M202’); experiment: Test E flooded paddy water application; conditions: Flood, 21 days, scale 0 to 100 (0 no effect, 100 complete control)
Source text: as §2, §3, §4

[10] = tested on: smallflower umbrella sedge (Cyperus difformis); experiment: Test E flooded paddy water application; conditions: Flood, 21 days, scale 0 to 100 (0 no effect, 100 complete control)
Source text: as §2, §3, §4

[11] = tested on: late watergrass (Echinochloa oryzicola); experiment: Test E flooded paddy water application; conditions: Flood, 21 days, scale 0 to 100 (0 no effect, 100 complete control)
Source text: as §2, §3, §4

[12] = tested on: junglerice (Echinochloa colona); experiment: Test E flooded paddy water application; conditions: Flood, 21 days, scale 0 to 100 (0 no effect, 100 complete control)
Source text: as §2, §3, §4

[13] = tested on: bearded (brdd.) sprangletop (Leptochloa fusca ssp. fascicularis); experiment: Test E flooded paddy water application; conditions: Flood, 21 days, scale 0 to 100 (0 no effect, 100 complete control)
Source text: as §2, §3, §4

[14] = tested on: ducksalad (Heteranthera limosa); experiment: Test E flooded paddy water application; conditions: Flood, 21 days, scale 0 to 100 (0 no effect, 100 complete control)
Source text: as §2, §3, §4

[15] = tested on: early watergrass (Echinochloa oryzoides); experiment: Test E flooded paddy water application; conditions: Flood, 21 days, scale 0 to 100 (0 no effect, 100 complete control)
Source text: as §2, §3, §4

[16] = tested on: rice flatsedge (Cyperus iria); experiment: Test E flooded paddy water application; conditions: Flood, 21 days, scale 0 to 100 (0 no effect, 100 complete control)
Source text: as §2, §3, §4

[17] = tested on: water seeded rice seedlings (Oryza sativa cv. ‘Japonica-M202’); experiment: Test E flooded paddy water application; conditions: Flood, 21 days, scale 0 to 100 (0 no effect, 100 complete control)
Source text: as §2, §3, §4

[18] = Postemergence, 125 g ai/ha, 0 to 100 scale (0 no effect, 100 complete control)
[19] = Postemergence, 500 g ai/ha, 0 to 100 scale (0 no effect, 100 complete control)
[20] = Preemergence, 125 g ai/ha, 0 to 100 scale where 0 is no effect and 100 is complete control, approximately ten days
[21] = Preemergence, 500 g ai/ha, 0 to 100 scale where 0 is no effect and 100 is complete control, approximately ten days

SMILES: CCOC(=O)c1nc(-c2ccc(Cl)c(Cl)c2)nc(N)c1Br [Compound 66]
- Plant response rating, Pigweed [1, 18]: 50
- Plant response rating, Pigweed [1, 19]: 65
- Plant response rating, Pigweed [1, 20]: 0
- Plant response rating, Pigweed [1, 21]: 10
- Plant response rating, Barnyardgrass [2, 18]: 0
- Plant response rating, Barnyardgrass [2, 19]: 0
- Plant response rating, Barnyardgrass [2, 20]: 0
- Plant response rating, Barnyardgrass [2, 21]: 0
- Plant response rating, Foxtail, Giant [3, 18]: 0
- Plant response rating, Foxtail, Giant [3, 19]: 0
- Plant response rating, Foxtail, Giant [3, 20]: 0
- Plant response rating, Foxtail, Giant [3, 21]: 0
- Plant response rating, Velvetleaf [4, 18]: 50
- Plant response rating, Velvetleaf [4, 19]: 75
- Plant response rating, Velvetleaf [4, 20]: 0
- Plant response rating, Velvetleaf [4, 21]: 35
- Plant response rating, Crabgrass [5, 18]: 0
- Plant response rating, Crabgrass [5, 19]: 0
- Plant response rating, Crabgrass [5, 20]: 0
- Plant response rating, Crabgrass [5, 21]: 15
- Plant response rating, Morningglory [6, 18]: 20
- Plant response rating, Morningglory [6, 19]: 30
- Plant response rating, Morningglory [6, 20]: 0
- Plant response rating, Morningglory [6, 21]: 0
- Barnyardgrass plant response rating ([7]; 32 g ai/ha): 0
- Barnyardgrass plant response rating ([7]; 125 g ai/ha): 0
- Barnyardgrass plant response rating ([7]; 250 g ai/ha): 35
- Plant response rating, Barnyardgrass ([7]; 16 g ai/ha): 0
- Redstem plant response rating ([8]; 32 g ai/ha): 0
- Redstem plant response rating ([8]; 64 g ai/ha): 0
- Redstem plant response rating ([8]; 125 g ai/ha): 40
- Redstem plant response rating ([8]; 250 g ai/ha): 100
- Plant response rating, Redstem ([8]; 16 g ai/ha): 0
- Rice, Transplanted plant response rating ([9]; 32 g ai/ha): 0
- Rice, Transplanted plant response rating ([9]; 64 g ai/ha): 0
- Rice, Transplanted plant response rating ([9]; 125 g ai/ha): 0
- Rice, Transplanted plant response rating ([9]; 250 g ai/ha): 0
- Plant response rating, Rice, Transplanted ([9]; 16 g ai/ha): 0
- Sedge, Umbrella plant response rating ([10]; 32 g ai/ha): 0
- Sedge, Umbrella plant response rating ([10]; 64 g ai/ha): 0
- Sedge, Umbrella plant response rating ([10]; 125 g ai/ha): 0
- Sedge, Umbrella plant response rating ([10]; 250 g ai/ha): 0
- Plant response rating, Sedge, Umbrella ([10]; 16 g ai/ha): 0
- Watergrass, Late plant response rating ([11]; 32 g ai/ha): 0
- Watergrass, Late plant response rating ([11]; 64 g ai/ha): 0
- Watergrass, Late plant response rating ([11]; 125 g ai/ha): 0
- Watergrass, Late plant response rating ([11]; 250 g ai/ha): 0
- Plant response rating, Watergrass, Late ([11]; 16 g ai/ha): 0
- Junglerice plant response rating ([12]; 32 g ai/ha): 0
- Junglerice plant response rating ([12]; 64 g ai/ha): 0
- Junglerice plant response rating ([12]; 125 g ai/ha): 0
- Junglerice plant response rating ([12]; 250 g ai/ha): 0
- Plant response rating, Junglerice ([12]; 16 g ai/ha): 0
- Sprangletop, Brdd. plant response rating ([13]; 32 g ai/ha): 0
- Sprangletop, Brdd. plant response rating ([13]; 64 g ai/ha): 0
- Sprangletop, Brdd. plant response rating ([13]; 125 g ai/ha): 0
- Sprangletop, Brdd. plant response rating ([13]; 250 g ai/ha): 0
- Plant response rating, Sprangletop, Brdd. ([13]; 16 g ai/ha): 0
- Ducksalad plant response rating ([14]; 32 g ai/ha): 100
- Ducksalad plant response rating ([14]; 64 g ai/ha): 100
- Ducksalad plant response rating ([14]; 125 g ai/ha): 100
- Ducksalad plant response rating ([14]; 250 g ai/ha): 100
- Plant response rating, Ducksalad ([14]; 16 g ai/ha): 95
- Watergrass, Early plant response rating ([15]; 32 g ai/ha): 0
- Watergrass, Early plant response rating ([15]; 64 g ai/ha): 0
- Watergrass, Early plant response rating ([15]; 125 g ai/ha): 0
- Watergrass, Early plant response rating ([15]; 250 g ai/ha): 0
- Plant response rating, Watergrass, Early ([15]; 16 g ai/ha): 0
- Flatsedge, Rice plant response rating ([16]; 32 g ai/ha): 0
- Flatsedge, Rice plant response rating ([16]; 64 g ai/ha): 0
- Flatsedge, Rice plant response rating ([16]; 125 g ai/ha): 0
- Flatsedge, Rice plant response rating ([16]; 250 g ai/ha): 0
- Plant response rating, Flatsedge, Rice ([16]; 16 g ai/ha): 0
- Rice, Water Seeded plant response rating ([17]; 32 g ai/ha): 0
- Rice, Water Seeded plant response rating ([17]; 64 g ai/ha): 0
- Rice, Water Seeded plant response rating ([17]; 125 g ai/ha): 0
- Rice, Water Seeded plant response rating ([17]; 250 g ai/ha): 0
- Plant response rating, Rice, Water Seeded ([17]; 16 g ai/ha): 0
